ChEMBL document CHEMBL5338783, “Discovery of an Anti-TNF-α 9-mer Peptide from a T7 Phage Display Library for the Treatment of Inflammatory Bowel Disease” (J Med Chem, 2023)
Active and inactive are the calls of the source. The calls are words filed in the database; no cut-off is given here. Peptide text beside a SMILES is read from it.

Key:
Tumor necrosis factor = Tumor necrosis factor (Homo sapiens, UniProt P01375); test: Binding affinity to recombinant TNF-alpha (unknown origin) assessed as dissociation constant incubated for 10 mins by MST assay
Tumor necrosis factor, sequence (P01375 whole entry): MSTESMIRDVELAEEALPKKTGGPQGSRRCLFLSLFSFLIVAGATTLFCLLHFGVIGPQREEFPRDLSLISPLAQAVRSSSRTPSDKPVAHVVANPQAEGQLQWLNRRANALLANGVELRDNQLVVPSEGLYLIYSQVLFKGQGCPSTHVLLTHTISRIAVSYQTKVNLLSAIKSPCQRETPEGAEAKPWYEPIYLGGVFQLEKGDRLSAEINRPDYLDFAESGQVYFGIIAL

Mus musculus [1] = test: Anti-colitis activity against DSS-induced acute colitis in C57BL/6 mouse model assessed as […] in IL-6 mRNA level at 0.5 to 1 mg/kg, ip daily for 7 days by RT-qPCR analysis; format: functional, organism-based; conditions: dose 0.5-1 mg/kg, time 7.0 day
RAW264.7 [2] = test: Antiinflammatory activity in LPS-stimulated mouse RAW264.7 cells assessed as inhibition of p38 phosphorylation incubated for 3 hrs by Western blot analysis; format: functional, cell-based; conditions: dose 25-100 µM
Mus musculus [3] = test: Antiinflammatory activity against DSS-induced acute colitis in C57BL/6 mouse model assessed as decrease in JNK1/2 phosphorylation in colon tissue administered intraperitoneally daily for 7 days by Western blot analysis; format: functional, organism-based; conditions: dose 0.5-1 mg/kg, route ip, time 7.0 day
[4] = target: T1, Tumor necrosis factor receptor superfamily member 1B (Homo sapiens) (UniProt P20333); test: Binding affinity to TNFR2 (unknown origin) at 488.3 to 500 uM incubated for 10 mins by MST assay; conditions: dose 488.3-500 µM
T1 sequence (whole entry): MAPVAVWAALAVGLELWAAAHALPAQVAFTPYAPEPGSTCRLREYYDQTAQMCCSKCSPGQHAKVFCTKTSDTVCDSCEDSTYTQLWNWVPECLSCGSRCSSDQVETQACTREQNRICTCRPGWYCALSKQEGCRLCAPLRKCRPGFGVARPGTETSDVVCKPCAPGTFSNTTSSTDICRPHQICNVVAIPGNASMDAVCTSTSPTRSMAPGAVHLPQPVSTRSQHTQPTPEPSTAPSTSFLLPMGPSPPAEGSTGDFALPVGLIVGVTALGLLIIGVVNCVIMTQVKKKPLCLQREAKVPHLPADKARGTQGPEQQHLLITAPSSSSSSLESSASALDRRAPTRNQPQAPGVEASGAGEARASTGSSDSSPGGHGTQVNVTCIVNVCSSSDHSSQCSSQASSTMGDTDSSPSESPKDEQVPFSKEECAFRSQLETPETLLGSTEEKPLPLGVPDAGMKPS

RAW264.7 [5] = test: Disruption of NF-kappaB/p65 nuclear import in LPS-stimulated mouse RAW264.7 cells preincubated for 30 mins followed by LPS stimulation measured after 3 hrs by immunofluorescence based microscopy; format: functional, cell-based
Mus musculus [6] = test: Anti-colitis activity against DSS-induced acute colitis in C57BL/6 mouse model assessed as reversal of body weight loss at 0.5 to 1 mg/kg, ip daily for 11 days; format: functional, organism-based; conditions: dose 0.5-1 mg/kg, time 11.0 day
Mus musculus [7] = test: Anti-colitis activity against DSS-induced acute colitis in C57BL/6 mouse model assessed as decrease in disease activity index at 0.5 to 1 mg/kg, ip daily for 11 days; format: functional, organism-based; conditions: dose 0.5-1 mg/kg, time 11.0 day
Mus musculus [8] = test: Anti-colitis activity against DSS-induced acute colitis in C57BL/6 mouse model assessed as […] in IL-1beta mRNA level at 0.5 to 1 mg/kg, ip daily for 7 days by RT-qPCR analysis; format: functional, organism-based; conditions: dose 0.5-1 mg/kg, time 7.0 day
[9] = target: T1, Tumor necrosis factor receptor superfamily member 1B (Homo sapiens); test: Inhibition of TNF-alpha (unknown origin) binding to TNFR2 by SPR analysis
Mus musculus [10] = test: Anti-colitis activity against DSS-induced acute colitis in C57BL/6 mouse model assessed as reduction in colon length at 0.5 to 1 mg/kg, ip daily for 11 days; format: functional, organism-based; conditions: dose 0.5-1 mg/kg, time 11.0 day
Mus musculus [11] = test: Anti-colitis activity against DSS-induced acute colitis in C57BL/6 mouse model assessed as reduction in colonic epithelial disruption at 0.5 to 1 mg/kg, ip daily for 11 days by H and E staining based analysis; format: functional, organism-based; conditions: dose 0.5-1 mg/kg, time 11.0 day
Mus musculus [12] = test: Antiinflammatory activity against DSS-induced acute colitis in C57BL/6 mouse model assessed as decrease in IkappaBalpha phosphorylation in colon tissue administered intraperitoneally daily for 7 days by Western blot analysis; format: functional, organism-based; conditions: dose 0.5-1 mg/kg, route ip, time 7.0 day
RAW264.7 [13] = test: Antiinflammatory activity in LPS-stimulated mouse RAW264.7 cells assessed as inhibition of p65 phosphorylation incubated for 3 hrs by Western blot analysis; format: functional, cell-based; conditions: dose 25-100 µM
Mus musculus [14] = test: Anti-colitis activity against DSS-induced acute colitis in C57BL/6 mouse model assessed as […] in IFN-gamma mRNA level at 0.5 to 1 mg/kg, ip daily for 7 days by RT-qPCR analysis; format: functional, organism-based; conditions: dose 0.5-1 mg/kg, time 7.0 day
BMDM [15] = test: Antiinflammatory activity in LPS-stimulated mouse BMDM cells assessed as inhibition of NF-kappaB signalling pathway incubated for 3 hrs by Western blot analysis; format: functional, cell-based; conditions: dose 25-100 µM
Mus musculus [16] = test: Anti-colitis activity against DSS-induced acute colitis in C57BL/6 mouse model assessed as increase in body weight value at 1 mg/kg, ip daily for 7 days; format: functional; conditions: time 7 day
BMDM [17] = test: Antiinflammatory activity in mouse BMDM cells assessed as decrease in LPS-stimulated IL-1beta mRNA level incubated for 3 hrs by RT-qPCR analysis; format: functional, cell-based; conditions: dose 25-100 µM
RAW264.7 [18] = test: Antiinflammatory activity in mouse RAW264.7 cells assessed as decrease in LPS-stimulated TNF-alpha mRNA level at 25 to 100 uM incubated for 3 hrs by RT-qPCR analysis; format: functional, cell-based; conditions: dose 25-100 µM
Mus musculus [19] = test: Anti-colitis activity against DSS-induced acute colitis in C57BL/6 mouse model assessed as reduction in colonic tissue damage at 0.5 to 1 mg/kg, ip daily for 7 days by H and E staining based analysis; format: functional, organism-based; conditions: dose 0.5-1 mg/kg, time 7.0 day
[20] = target: T2, Tumor necrosis factor receptor superfamily member 1A (Homo sapiens) (UniProt P19438); test: Inhibition of TNF-alpha (unknown origin) binding to TNFR1 by SPR analysis
T2 sequence (whole entry): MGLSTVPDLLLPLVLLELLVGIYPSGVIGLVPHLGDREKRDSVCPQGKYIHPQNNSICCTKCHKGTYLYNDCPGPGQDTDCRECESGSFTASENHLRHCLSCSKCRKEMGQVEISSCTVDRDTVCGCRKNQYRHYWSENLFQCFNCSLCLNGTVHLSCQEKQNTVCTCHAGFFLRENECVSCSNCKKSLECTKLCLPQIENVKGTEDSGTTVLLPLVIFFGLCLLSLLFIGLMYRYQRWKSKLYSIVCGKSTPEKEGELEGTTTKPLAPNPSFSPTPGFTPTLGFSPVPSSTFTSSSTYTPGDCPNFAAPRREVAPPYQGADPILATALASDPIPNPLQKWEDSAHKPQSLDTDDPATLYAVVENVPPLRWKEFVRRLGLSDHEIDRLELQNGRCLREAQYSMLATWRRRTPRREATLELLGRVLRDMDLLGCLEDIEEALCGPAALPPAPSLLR

RAW264.7 [21] = test: Antiinflammatory activity in mouse RAW264.7 cells assessed as decrease in LPS-stimulated IL-6 protein expression incubated for 3 hrs by flow cytometry; format: functional, cell-based; conditions: dose 25-100 µM
[22] = Toxicity in DSS-induced acute colitis in C57BL/6 mouse model assessed as animal survival at 0.5 to 1 mg/kg, ip daily for 11 days; format: organism-based; conditions: in vivo, 264 h, dose 0.5-1 mg/kg, time 11 day
Mus musculus [23] = test: Anti-colitis activity against DSS-induced acute colitis in C57BL/6 mouse model assessed as decrease in disease activity index at 1 mg/kg, ip daily for 7 days; format: functional; conditions: time 7 day
Mus musculus [24] = test: Antiinflammatory activity against DSS-induced acute colitis in C57BL/6 mouse model assessed as decrease in p38 phosphorylation in colon tissue administered intraperitoneally daily for 7 days by Western blot analysis; format: functional, organism-based; conditions: dose 0.5-1 mg/kg, route ip, time 7.0 day

Question: Which Kd (Tumor necrosis factor) does the source give for C[C@H](N)C(=O)N[C@@H](CS)C(=O)N[C@@H](Cc1cnc[nH]1)C(=O)N[C@@H](C)C(=O)N[C@@H](Cc1c[nH]c2ccccc12)C(=O)N[C@@H](C)C(=O)N1CCC[C@H]1C(=O)N[C@H](C(=O)N[C@@H](CCCNC(=N)N)C(=O)O)[C@@H](C)O (H-ACHAWAPTR-OH) here?
Answer: 5.14 µM

Question: And the Activity (Mus musculus [1])?
Answer: Active

Question: And the Activity (RAW264.7 [2])?
Answer: Dose-Dependent Effect

Question: What about the Activity (Mus musculus [3]) of the same molecule?
Answer: Dose-Dependent Effect

Question: What about the Activity [4] of the same molecule?
Answer: inactive

Question: And the Activity (RAW264.7 [5])?
Answer: Dose-Dependent Effect

Question: And the Activity (Mus musculus [6])?
Answer: Active

Question: What about the Activity (Mus musculus [7]) of the same molecule?
Answer: Active

Question: What about the Activity (Mus musculus [8]) of the same molecule?
Answer: Active

Question: What about the inhibition [9] of the same molecule?
Answer: Active

Question: What about the Activity (Mus musculus [10]) of the same molecule?
Answer: Active

Question: And the Activity (Mus musculus [11])?
Answer: Active

Question: What about the Activity (Mus musculus [12]) of the same molecule?
Answer: Dose-Dependent Effect

Question: And the Activity (RAW264.7 [13])?
Answer: Dose-Dependent Effect

Question: And the Activity (Mus musculus [14])?
Answer: Active

Question: And the Activity (BMDM [15])?
Answer: Dose-Dependent Effect

Question: And the Activity (Mus musculus [16])?
Answer: 0.24

Question: What about the Activity (BMDM [17]) of the same molecule?
Answer: Dose-Dependent Effect

Question: What about the Activity (RAW264.7 [18]) of the same molecule?
Answer: Dose-Dependent Effect

Question: And the Activity (Mus musculus [19])?
Answer: Active

Question: And the inhibition [20]?
Answer: Active

Question: What about the Activity (RAW264.7 [21]) of the same molecule?
Answer: Dose-Dependent Effect

Question: What about the Activity [22] of the same molecule?
Answer: Non-Toxic

Question: And the Activity (Mus musculus [23])?
Answer: -1.25

Question: And the Activity (Mus musculus [24])?
Answer: Dose-Dependent Effect
